{"source": "patent US12697313B2", "about": "“Methods of treating anemia using formoterol or a pharmaceutically acceptable salt thereof” (Dana-Farber Cancer Institute, Inc., priority 2022, dated 2026)", "key": {"[1]": {"test_system": "MDS patient-derived bone marrow cells", "experiment": "Liquid erythroid differentiation culture of MDS patient-derived bone marrow cells (ex vivo)", "assay_type": "cell-based, human", "settings": "for erythroid differentiation (CD235a): n=40 MDS patients", "source_text": "(§1) These findings prompted further testing to determine whether administration of FF in MDS patient-derived bone marrow (BM) samples improves erythroid differentiation in an ex vivo setting. To explore this, cells isolated from BM aspirates of de-identified MDS patients were procured. Next, the MDS patient-derived BM cells were placed in liquid erythroid differentiation culture, as previously described (Khajuria et al. (2018) Cell 173: 90-103), with or without FF treatment. […] To further validate this observation, the impact of FF from another vendor (Sigma) was tested on MDS patient-derived cells. […] Next, CD34+ progenitors were FACS-sorted from the MDS patient-derived BM aspirates and seeded in semi-solid methylcellulose culture media with vehicle (DMSO) or FF treatment. […] Therefore, the FDA-approved drug formoterol fumarate could be repurposed to reverse anemia in a range of hematological disorders.\nCD34+ primary human hematopoietic stem and progenitor cells (HSPCs) were obtained from Fred-Hutchinson Cancer Research center, Seattle, USA and cultured, as previously described. Formoterol fumarate was purchased from Selleckchem (#S2020) and Sigma (#F9552), dissolved (in DMSO) and stored as per manufacturer's instructions, and used at the final working concentrations as indicated. Frozen BM aspirates from de-identified MDS patients were obtained using our IRB approved protocol (#21-632) from the Pasquarello tissue bank at DFCI."}, "mice": {"test_system": "mice", "settings": "cited from earlier work"}, "primary human HSPCs": {"test_system": "primary human HSPCs", "experiment": "Methylcellulose colony-formation assay, primary human HSPCs", "assay_type": "cell-based", "settings": "n=4 healthy donors; vs DMSO; FIG. 4", "method": "Given the involvement of β2-AR in erythropoiesis, it was hypothesized that administration of long-acting selective β2-AR agonist FF might promote erythroid differentiation. To address this, primary human HSPCs were treated with varying doses of FF (Selleckchem). […] To ascertain if FF administration plays a role further upstream in the erythroid differentiation pathway, methylcellulose colony-formation assays were performed.\n(§2) After genome editing, primary human HSPCs were washed twice with 1× PBS and mixed with semi-solid methylcellulose medium (H4034 StemCell Technologies) by brief vortexing. Cells were plated at a density of 2000 per well in a 6-well plate followed by incubation in a humidified chamber at 37° C. for 14 days. Imaging of the colonies was performed using EVOS M5000 Imaging system® (ThermoFisher Scientific). The colony-forming cells were then collected by triturating the wells using staining buffer and multi-color flow cytometry was performed as previously described (Li et al. (2014) Blood 124: 3636-3645)."}, "[2]": {"test_system": "MDS patient-derived BM progenitors", "experiment": "Semi-solid methylcellulose culture of MDS patient-derived BM progenitors", "assay_type": "cell-based, human", "source_text": "as §1\nas §2, with “The colony-forming cells were then collected by triturating the wells using staining buffer and multi-color flow cytometry was performed as previously described (Li et al. (2014) Blood 124: 3636-3645).” left out"}, "mitochondrial biogenesis": {"test_system": "mitochondrial biogenesis", "settings": "cited from earlier work"}, "Apcmin mice": {"test_system": "Apcmin mice", "experiment": "FF i.p. in Apcmin mice (intestinal adenoma model that develops anemia)", "assay_type": "in vivo", "method": "This is a mouse model of intestinal adenoma that develops anemia. FF treatment at a low dose of 0.3 mg/kg daily (i.p.) alleviates RBC parameters, such as (FIG. 74A) RBCs (FIG. 74B) hematocrit% (HCT%) and (FIG. 74C) hemoglobin (Hb) in Apcmin mice that spontaneously develop anemia at ~3 months age. * p<0.05, *** p<0.001, 2-way ANOVA. n=5-6 mice per group. Comparisons are shown in between Apcmin+FF versus Apcmin+Veh. Veh: vehicle; LC: littermate control mice."}, "naive wild-type mice": {"test_system": "naive wild-type mice", "experiment": "FF in naive wild-type mice without PHZ stress (FIG. 62 setup)", "assay_type": "in vivo", "settings": "for % change in body weights: FIG. 63"}, "[3]": {"test_system": "erythroid progenitors / bone marrow cells of wild-type mice", "experiment": "Gene expression (bulk RNA sequencing, qPCR) in FF-treated naive wild-type mice", "assay_type": "in vivo", "source_text": "Data represented as mean±SEM. All comparisons are done with respect to Vehicle (DMSO-treated).\nThis example describes the effects of formoterol fumarate treatment on expression of genes that have been linked to erythropoiesis including Klf9 (Ren et al., (2018) Yi Chuan. 40(11):998-1006 and Zhang et al., (2017) Blood 130(20):2161-2170), Klf13, Klf11 (Emery (2007) J. Cell. Biochem 100(4):1045-55), Hif1a (Wellmann, et al., (2004) J. Cell Sci. 117:175-94; Feng et al., (2022) Nature 610(7933):783-790; and Chen et al., (2019) N Engl J Med 381:1011-1022), Epas1 (Scortegagna et al. (2003) Blood 102:1634-40), Ddit4 (Yoshikawa (2023) Cancer Biomark. 37(4): 217-225), Cirbp, and Rora (Kim et al. (2008) Arterioscler Throm Vasc Biol 28(10):1796-802 and Chauvet et al., (2004) Biochem. J. 384:79-85). Differential gene expression in naïve wild-type mice was analyzed by bulk RNA sequencing according to an example workflow as depicted in FIG. 86."}}, "note": "“Also recorded” adds a separate entry of the source."}
{"smiles": "COc1ccc(C[C@@H](C)NC[C@H](O)c2ccc(O)c(NC=O)c2)cc1.O=C(O)/C=C/C(=O)O", "note": "[FF, (E)-but-2-enedioic acid;N-[2-hydroxy-5-[(1R)-1-hydroxy-2-[[(2R)-1-(4-methoxyphenyl)propan-2-yl]amino]ethyl]phenyl]formamide]", "values": [{"measurement": "myelopoiesis/megakaryopoiesis", "setting": "[1]; 40 MDS patient-derived cells, FIG. 9", "value": "does not affect myelopoiesis/megakaryopoiesis"}, {"measurement": "erythroid differentiation (CD235a)", "setting": "[1]; FF from Selleckchem, FIG. 8A", "value": "significantly enhanced erythroid differentiation in BM cells in the majority of MDS patients; also recorded: enhances erythroid differentiation in MDS patient-derived bone marrow cells"}, {"measurement": "erythroid differentiation (CD235a)", "setting": "[1]; FF from Sigma, FIG. 8B", "value": "boosted erythropoiesis in the majority of MDS patients; also recorded: enhances erythroid differentiation in MDS patient-derived bone marrow cells"}, {"measurement": "muscle structure and function after injury", "setting": "mice; literature", "value": "improve muscle structure and function after injury"}, {"measurement": "muscle mass", "setting": "mice; mice (Gehrig et al. 2010; Ryall et al. 2008)", "value": "increase muscle mass"}, {"measurement": "BFU-E and CFU-E formation", "setting": "primary human HSPCs", "value": "significantly increased blast-forming unit-erythroid (BFU-E) and colony-forming unit-erythroid (CFU-E) formation; also recorded: enhances blast forming unit-erythroid (BFU-E) and colony forming unit-erythroid (CFU-E) formation"}, {"measurement": "viability, myelopoiesis (CFU-GM), megakaryopoiesis (CFU-Mk)", "setting": "[2]; FIG. 11D", "value": "produced insignificant effects on the viability, myeloid and megakaryocytic differentiation; also recorded: does not affect viability, myelopoiesis (CFU-GM) or megakaryopoiesis (CFU-Mk)"}, {"measurement": "erythroid progenitors BFU-E and CFU-E", "setting": "[2]; n=23 MDS patients, vs DMSO, FIG. 11A-11C", "value": "significantly boosted both BFU-E and CFU-E formation; also recorded: enhances differentiation of erythroid progenitors in MDS patient-derived bone marrow cells"}, {"measurement": "expression of mtDNA encoded genes", "setting": "mitochondrial biogenesis; Arif et al. 2019", "value": "upregulates the expression of mtDNA encoded genes"}, {"measurement": "mitochondrial oxygen consumption rates (OCR)", "setting": "mitochondrial biogenesis; in vitro and ex vivo (Arif et al. 2019)", "value": "promotes mitochondrial oxygen consumption rates (OCR)"}, {"measurement": "mitochondrial biogenesis", "setting": "mitochondrial biogenesis; several in vitro and in vivo models (literature)", "value": "reported to augment mitochondrial biogenesis"}, {"measurement": "RBC parameters (RBCs, HCT%, Hb)", "setting": "Apcmin mice; 0.3 mg/kg daily i.p., FIG. 74", "value": "elevates RBC parameters"}, {"measurement": "body weight", "setting": "Apcmin mice; FIG. 75", "value": "modestly increases body weight"}, {"measurement": "% change in body weights", "setting": "naive wild-type mice; 0.1/0.3/0.5 mg/kg", "value": "increases body weights"}, {"measurement": "viability of BM progenitors", "setting": "naive wild-type mice; 0.1/0.3/0.5 mg/kg, FIG. 67A", "value": "substantially increases"}, {"measurement": "LS-K cells in the BM", "setting": "naive wild-type mice; 0.1/0.3/0.5 mg/kg, FIG. 67B", "value": "substantially increases"}, {"measurement": "MEP and MkP in BM", "setting": "naive wild-type mice; 0.1/0.3/0.5 mg/kg, FIG. 68A-68B", "value": "significantly elevates megakaryocyte erythroid progenitors (MEP) and megakaryocytic progenitors (MkP)"}, {"measurement": "expression of erythroid genes EPOR, ASXL1, NFE2 in sorted erythroid progenitors", "setting": "naive wild-type mice; 0.1/0.3/0.5 mg/kg, FIG. 70A-70C", "value": "substantially increases the expression of erythroid genes"}, {"measurement": "expression of ADRB2 in sorted erythroid progenitors", "setting": "naive wild-type mice; 0.1/0.3/0.5 mg/kg, FIG. 70D", "value": "does not influence the expression of β2-AR-encoding gene ADRB2"}, {"measurement": "% change in body weights", "setting": "naive wild-type mice; 0.1 and 0.3 mg/kg groups", "value": "did not show statistical significance"}, {"measurement": "HCT%", "setting": "naive wild-type mice; 0.1 and 0.5 mg/kg groups, FIG. 64C", "value": "did not show statistical significance"}, {"measurement": "RBC parameters (RBC numbers, Hb, HCT %) in peripheral blood", "setting": "naive wild-type mice; FIG. 64", "value": "enhances and sustains RBC parameters"}, {"measurement": "WBC numbers and platelet counts", "setting": "naive wild-type mice; FIG. 65A, 65C", "value": "does not influence"}, {"measurement": "monocyte counts in peripheral blood", "setting": "naive wild-type mice; FIG. 65B", "value": "modestly impacts monocyte counts"}, {"measurement": "mitochondrial biogenesis in BMPs (MitoTracker staining)", "setting": "naive wild-type mice; FIG. 66A", "value": "enhances mitochondrial biogenesis"}, {"measurement": "mitochondrial membrane potential in BMPs (TMRE staining)", "setting": "naive wild-type mice; FIG. 66B", "value": "enhances mitochondrial membrane potential"}, {"measurement": "mitochondrial superoxide production in BMPs (MitoSox staining)", "setting": "naive wild-type mice; FIG. 66C", "value": "significantly reduces mitochondrial superoxide production"}, {"measurement": "HIF-1α expression in bone marrow cells", "setting": "[3]; 0.5mg/kg ip 3× weekly, qPCR, FIG. 88A", "value": "enhances HIF-1α expression; also recorded: both significantly increased"}, {"measurement": "VEGFA expression in bone marrow cells", "setting": "[3]; 0.5mg/kg ip 3× weekly, qPCR, FIG. 88B", "value": "enhances; also recorded: both significantly increased"}, {"measurement": "expression of Klf9, Klf13, Klf11, Hif1a, Epas1, Ddit4, Cirbp, Rora in erythroid progenitors from bone marrow", "setting": "[3]; bulk RNA sequencing, FF-treated vs vehicle-treated, FIG. 87", "value": "increased in FF-treated mice"}]}
